Measured values taken from US20040073074A1, “Method of continuous production of polyalkylbiphenyls” (priority 2002, published 2004).

Assay: Confirmation of precipitation of 4,4′-diisopropylbiphenyl crystals on cooling
Assay type: physicochemical
Conditions: cooled to −10° C.
Description: (Confirmation of Precipitation of 4,4′-diisopropylbiphenyl Crystals)
Solutions each containing 4,4′-diisopropylbiphenyl in ratios of 15% by mass and 30% by mass in diisopropylbiphenyl were respectively prepared in an amount of 50 g. Each solution was cooled to −10° C. […] Therefore, as mentioned above, in the case where the content of diisopropylbiphenyl contained in the solution recovery from the tower top of the distillation tower is 7.6% by mass and this amount is 27.6% by mass of the amount of diisopropylbiphenyl measured at the outlet of the reactor, with the result that the amount of 4,4′-diisopropylbiphenyl in diisopropylbiphenyl as a product is 14.1% by mass, there is no particular problem as to the low-temperature characteristics of the product. However, if the amount of diisopropylbiphenyl contained in the solution recovery from the tower top of the distillation tower becomes increase and the amount of 4,4′-diisopropylbiphenyl in diisopropylbiphenyl as a product becomes increase, the low-temperature characteristics will deteriorate.

Compound: CC(C)c1ccc(-c2ccc(C(C)C)cc2)cc1 [4,4′-diisopropylbiphenyl]
- precipitation of crystals (15% by mass in diisopropylbiphenyl): no precipitation of crystals was observed
- precipitation of crystals (30% by mass in diisopropylbiphenyl): a large amount of 4,4′-diisopropylbiphenyl precipitated
